Source: ChEMBL document CHEMBL1121753 (J Med Chem, 1981)

Key:
ADJ/PC6 = assay: Compound was tested for dose producing 90% reduction in tumor weight, in ADJ/PC6 mouse plasma cell tumor
[1] = Compound was tested for dose required to kill 50 % of ADJ/PC6 mouse plasma cell tumor in a group
[2] = Therapeutic index as the ratio of LD50 to ED50 of the compound

| Structure (SMILES) | ED90 (ADJ/PC6) | LD50 [1] | selectivity ratio [2] |
| --- | --- | --- | --- |
| [2H]C1([2H])CNP(=O)(N(CCCl)CCCl)OC1 (stereo unspecified) | 12 mg/kg | 700 mg/kg | 58 |
| O=P1(N(CCCl)CCCl)NCCCO1 (stereo unspecified) [CYCLOPHOSPHAMIDE ANHYDROUS] | 2.25 mg/kg | 260 mg/kg | 116 |
